Columns and labels:
male CDl albino mice [1] = test: Phencyclidine (PCP)-induced locomotor activity of mice (actimeter, Event-Counter); type: in vivo; conditions: for direct effect on phencyclidine-induced locomotor behavior (in words): 10 minutes (15 minutes) after i.p. 150 mg/kg (4S)-allenylGABA or 400 mg/kg vigabatrin (Table I)
Description: (§1) In determining efficacy for the above-stated uses of gamma-aminobutyric acid transaminase inhibitors standard laboratory models are employed wherein effects on phencyclidine-induced locomotor activity are determined. One such test employed is: male CDl albino mice (weighing 30-40 grams) (Charles River, St. Aubin-les-Elbeuf, France) kept under standardized conditions (22°C, 60% relative humidity; 12 hours light - 12 hours dark cycle; water and standard diet ad libitum). Locomotor activity is determined using the Event-Counter of Columbus Instr. Corp. (Columbus, Ohio). The animals (six per cage) are brought into a room which is equipped with an actimeter, and allowed to adapt to the new environment for several hours. Phencyclidine is given 5 hours after administration of the GABA-T inhibitors. The dose of phencyclidine used is 5 µg/g in 10 µl of physiological saline, i.p. Immediately after phencyclidine administration (or of the same volume of physiological saline in the case of controls), the animals are placed individually into standard plastic cages (23 cm × 17 cm), and the actimeter is set into action. Total time of observation: 35 minutes. The scores of 5 minute intervals are integrated and stored by the computer.
(§2) In order to test "direct" effects of the drugs, locomotor activity was determined, starting 10 minutes after intraperitoneal administration of 150 mg/kg (4S)-allenylGABA, and 400 mg/kg vigabatrin, respectively.
(§3) The locomotor behavior of mice with elevated brain GABA concentrations was tested as follows: vigabatrin and (4S)-allenylGABA were administered intraperitoneally in a dose-range from 100-800 mg/kg and 50-300 mg/kg, respectively. Within this dose range whole brain GABA concentrations, as observed 5 hours post injection were between 2.5 and 10 µmol/g.

whole brain GABA = test: Whole brain GABA concentrations after GABA-T inhibitor administration; type: in vivo, mice; conditions: 15 minutes after administration of optimum doses
male CDl albino mice [2] = test: Spontaneous locomotor activity of mice (actimeter, Event-Counter); type: in vivo
Description: as §1, §2, §3

C=C=C[C@@H](N)CCC(=O)O [(4S)-allenylGABA, (S)-4-amino-5,6-heptadienoic acid]
PCP-induced locomotor activity, Mean scores ± S.D. (male CDl albino mice [1]; 150 mg/kg i.p., given 10 minutes before phencyclidine (5 mg/kg)): 2680 ± 1040 (11)
direct effect on phencyclidine-induced locomotor behavior (in words) (male CDl albino mice [1]): absence of an effect
minimal effective dose (male CDl albino mice [1]; Mus musculus, 5 h, read-out: dose giving a statistically significant difference to mice receiving only phencyclidine): ≥ 100 mg/kg
phencyclidine-induced hypermotility reduced by (male CDl albino mice [1]; highest dose given (300 mg/kg) i.p. 5 h before phencyclidine): 75%
brain GABA concentrations (whole brain GABA): below 3 µmol/g
Spontaneous locomotor activity, Mean scores ± S.D. (male CDl albino mice [2]; 50 mg/kg i.p., 5 h pretreatment): 306.244 ( 6)
Spontaneous locomotor activity, Mean scores ± S.D. (male CDl albino mice [2]; 100 mg/kg i.p., 5 h pretreatment): 406.221 ( 6)
Spontaneous locomotor activity, Mean scores ± S.D. (male CDl albino mice [2]; 150 mg/kg i.p., 5 h pretreatment): 315.304 ( 6)
Spontaneous locomotor activity, Mean scores ± S.D. (male CDl albino mice [2]; 150 mg/kg i.p., given 10 minutes before physiol. saline): 688 ± 308 ( 6)
Spontaneous locomotor activity, Mean scores ± S.D. (male CDl albino mice [2]; 300 mg/kg i.p., 5 h pretreatment): 445.420 ( 6)
sedation / motor activity at very high dose (male CDl albino mice [2]; 600 mg/kg (not shown)): sedated
effect on spontaneous locomotor activity (in words) (male CDl albino mice [2]; dose range from 50 to 300 mg/kg, 5 h pretreatment (Table III)): did not affect

C=C[C@H](N)CCC(=O)O [Vigabatrin, (R)S-4-aminohex-5-enoic acid]
PCP-induced locomotor activity, Mean scores ± S.D. (male CDl albino mice [1]; 100 mg/kg i.p. 5 h before phencyclidine (5 mg/kg)): 2360 ± 1100 (12)
PCP-induced locomotor activity, Mean scores ± S.D. (male CDl albino mice [1]; 200 mg/kg i.p. 5 h before phencyclidine (5 mg/kg)): 1970 ± 730 (12)
locomotor activity, lowest value, as % of that of phencyclidine-treated controls (male CDl albino mice [1]; 400 mg/kg i.p. 5 h before phencyclidine): 55%
PCP-induced locomotor activity, Mean scores ± S.D. (male CDl albino mice [1]; 400 mg/kg i.p. 5 h before phencyclidine (5 mg/kg)): 1690 ± 1385 (12)
PCP-induced locomotor activity, Mean scores ± S.D. (male CDl albino mice [1]; 400 mg/kg i.p., given 10 minutes before phencyclidine (5 mg/kg)): 2460 ± 1220 (11)
PCP-induced locomotor activity, Mean scores ± S.D. (male CDl albino mice [1]; 600 mg/kg i.p. 5 h before phencyclidine (5 mg/kg)): 2180 ± 410 (12)
PCP-induced locomotor activity, Mean scores ± S.D. (male CDl albino mice [1]; 700 mg/kg i.p. 5 h before phencyclidine (5 mg/kg)): 1780 ± 1080 (12)
PCP-induced locomotor activity, Mean scores ± S.D. (male CDl albino mice [1]; 800 mg/kg i.p. 5 h before phencyclidine (5 mg/kg)): 2100 ± 1780 (12)
direct effect on phencyclidine-induced locomotor behavior (in words) (male CDl albino mice [1]): absence of an effect
brain GABA concentrations (whole brain GABA): below 3 µmol/g
Spontaneous locomotor activity, Mean scores ± S.D. (male CDl albino mice [2]; 200 mg/kg i.p., 5 h pretreatment): 505 ± 344 (6)
Spontaneous locomotor activity, Mean scores ± S.D. (male CDl albino mice [2]; 400 mg/kg i.p., 5 h pretreatment): 471 ± 306 (12)
Spontaneous locomotor activity, Mean scores ± S.D. (male CDl albino mice [2]; 400 mg/kg i.p., given 10 minutes before physiol. saline, 35 minutes observation): 528 ± 239 ( 6)
Spontaneous locomotor activity, Mean scores ± S.D. (male CDl albino mice [2]; 600 mg/kg i.p., 5 h pretreatment): 361 ± 139 (6)
Spontaneous locomotor activity, Mean scores ± S.D. (male CDl albino mice [2]; 700 mg/kg i.p., 5 h pretreatment): 441 ± 298 (6)
Spontaneous locomotor activity, Mean scores ± S.D. (male CDl albino mice [2]; 800 mg/kg i.p., 5 h pretreatment): 435 ± 275 (6)
effect on spontaneous locomotor activity (in words) (male CDl albino mice [2]; 100-800 mg/kg i.p., 5 h pretreatment (Table II)): not significantly affected

— EP0509180A1, “Use of GABA-T inhibitors for the treatment of schizophrenia and phencyclidine intoxication” (MERRELL DOW PHARMACEUTICALS INC., priority 1991, dated 1992)
